Results as given in patent US7018642B2 (The Procter & Gamble Company, priority 2001, dated 2006).

tested on: P. fluorescens strain ATCC 13525; assay: Biofilm prevention screen (96-well microplate, crystal violet); assay type: cell-based; details: Pseudomonas fluorescens, ATCC13525, 32 μM, positive = prevention, negative = enhancement of biofilm formation, quadruplicate, read-out: average percentage reduction of biofilm formed relative to DMSO controls
Method: (§1) Overnight cultures of 3 mL are made of P. aeruginosa strain PAO1 (grown in R2A medium (Handbook of Microbiological Media; CRC Press, 1997, second edition, R. M. Atlas, ed.), modified to omit Mg^2+ but to include 0.3–0.5% fructose (pH 7.0) and 3 μM ferrous ammonium sulfate), P. fluorescens strain ATCC 13525 (grown in R2A modified to omit Mg^2+ but to include 0.3–0.5% sodium pyruvate (pH 7.0)), S. epidermidis strain ATCC 35984 (grown in a ¼ dilution of TSB (Handbook of Microbiological Media; CRC Press, 1997, second edition, R. M. Atlas, ed.) supplemented with 1% fructose (pH 7.0) and 3 μM ferrous ammonium sulfate). To each type of growth medium, HEPES (pH 7.3) is optionally added to a final concentration of 10 mM.
(§2) To PS, PVC, or PP (preferably PP or PVC) round-bottom, 96-well microplates containing 100 μl per well of the respective growth medium as described above, compounds to be tested (dissolved in DMSO) are added and mixed, to give a final concentration of 250–500 μM. These microplates then also are used to make successive dilutions of the compounds in the same respective growth medium to yield microplates containing final concentrations of, for example, 160 μM and 32 μM of the same set of compounds. Control wells are included in the dilution series that contain only DMSO. From the 3 ml overnight cultures, each of the three dilution plate sets is inoculated with 5 μl per well of a 1:1 dilution in the same liquid growth media of the appropriate culture. The covered plate is then incubated with shaking, at 30° C. (for P. aeruginosa or P. fluorescens) or 37° C. (for S. epidermidis), at 200 rpm, for 16–26 hours, in a humidity controlled environment.
(§3) Cells present in biofilm attached to the microplate surface are stained with CV either after removal of the liquid from each well, followed by rinsing three times (aspiration and addition) with 150 μl per well phosphate buffered saline solution (PBS) and final addition of 100 μl per well of PBS, or by direct addition of stain to bacterial cultures without rinsing. To 100 μl per well of PBS or of bacterial culture, 25 μl/well of 1% CV solution (in ˜10% ethanol) is added. After incubation at room temperature for 45 minutes, the dye solution is removed from the plates. Residual dye is immediately removed by gentle rinsing with a stream of deionized water by filling and inverting the plates 4–5 times, or by using an automated pipettor. Rinsed plates are air-dried at room temperature for 0.5–2 hours. Bound dye is extracted by the addition of 150 μL per well of 95% ethanol, followed by vigorous mixing for 10–15 seconds and incubation for 45 minutes at room temperature without shaking. Subsequently, either undiluted or diluted (in ethanol) samples of extracted CV are transferred to flat bottom, polystyrene microtiter plates and absorbances at 586 nm were measured in a microplate reader. Readings from wells containing compounds are compared to the average of data from control wells that contain only DMSO. Replicate samples are measured, and results are reported as averages of the replicate well data points.
(§4) Data are expressed in terms of the average percentage reduction of biofilm formed in the presence of each compound, relative to the DMSO controls, for quadruplicate samples. Assays are run using the three compound concentrations indicated. Positive numbers indicate prevention of biofilm formation by a compound, and negative numbers indicate enhancement of biofilm formation by a compound (percentage coefficients of variation are ≦10%).

Structure (SMILES)	inhibition at 32 µM [%]
CCCCCCCCNC(=O)[C@@H]1CCCN1C(=O)OC(C)(C)C [Compound 11]	-4
CCCCCCCCNC(=O)[C@@H]1CCN1 [Compound 288]	-14
CCCCCCCCCCCCNC(=O)[C@@H]1CCN1C(=O)OC(C)(C)C [Compound 286]	-9

same assay, conditions: Pseudomonas fluorescens, ATCC13525, 160 μM, positive = prevention, negative = enhancement of biofilm formation, quadruplicate, read-out: average percentage reduction of biofilm formed relative to DMSO controls

Structure (SMILES)	inhibition at 160 µM [%]
CCCCCCCCNC(=O)[C@@H]1CCCN1C(=O)OC(C)(C)C [Compound 11]	-6
CCCCCCCCNC(=O)[C@@H]1CCN1 [Compound 288]	40
CCCCCCCCCCCCNC(=O)[C@@H]1CCN1C(=O)OC(C)(C)C [Compound 286]	-60

same assay, conditions: Pseudomonas fluorescens, ATCC13525, 390 μM, positive = prevention, negative = enhancement of biofilm formation, quadruplicate, read-out: average percentage reduction of biofilm formed relative to DMSO controls

Structure (SMILES)	inhibition at 390 µM [%]
CCCCCCCCNC(=O)[C@@H]1CCCN1C(=O)OC(C)(C)C [Compound 11]	-26
CCCCCCCCNC(=O)[C@@H]1CCN1 [Compound 288]	59
CCCCCCCCCCCCNC(=O)[C@@H]1CCN1C(=O)OC(C)(C)C [Compound 286]	-98

tested on: P. aeruginosa strain PAO1; assay: as above; assay type: cell-based; details: Pseudomonas aeruginosa, 32 μM, positive = prevention, negative = enhancement of biofilm formation, quadruplicate, read-out: average percentage reduction of biofilm formed relative to DMSO controls
Method: as §1, §2, §3, §4

Structure (SMILES)	inhibition at 32 µM [%]
CCCCCCCCNC(=O)[C@@H]1CCCN1C(=O)OC(C)(C)C [Compound 11]	-6
CCCCCCCCNC(=O)[C@@H]1CCN1 [Compound 288]	12
CCCCCCCCCCCCNC(=O)[C@@H]1CCN1C(=O)OC(C)(C)C [Compound 286]	-5

same assay, conditions: Pseudomonas aeruginosa, 160 μM, positive = prevention, negative = enhancement of biofilm formation, quadruplicate, read-out: average percentage reduction of biofilm formed relative to DMSO controls

Structure (SMILES)	inhibition at 160 µM [%]
CCCCCCCCNC(=O)[C@@H]1CCCN1C(=O)OC(C)(C)C [Compound 11]	-18
CCCCCCCCNC(=O)[C@@H]1CCN1 [Compound 288]	97
CCCCCCCCCCCCNC(=O)[C@@H]1CCN1C(=O)OC(C)(C)C [Compound 286]	-22

same assay, conditions: Pseudomonas aeruginosa, 390 μM, positive = prevention, negative = enhancement of biofilm formation, quadruplicate, read-out: average percentage reduction of biofilm formed relative to DMSO controls

Structure (SMILES)	inhibition at 390 µM [%]
CCCCCCCCNC(=O)[C@@H]1CCCN1C(=O)OC(C)(C)C [Compound 11]	-15
CCCCCCCCNC(=O)[C@@H]1CCN1 [Compound 288]	96
CCCCCCCCCCCCNC(=O)[C@@H]1CCN1C(=O)OC(C)(C)C [Compound 286]	-54

tested on: S. epidermidis strain ATCC 35984; assay: as above; assay type: cell-based; details: Staphylococcus epidermidis, ATCC35984, 32 μM, positive = prevention, negative = enhancement of biofilm formation, quadruplicate, read-out: average percentage reduction of biofilm formed relative to DMSO controls
Method: as §1, §2, §3, §4

Structure (SMILES)	inhibition at 32 µM [%]
CCCCCCCCNC(=O)[C@@H]1CCCN1C(=O)OC(C)(C)C [Compound 11]	10
CCCCCCCCNC(=O)[C@@H]1CCN1 [Compound 288]	101
CCCCCCCCCCCCNC(=O)[C@@H]1CCN1C(=O)OC(C)(C)C [Compound 286]	-15

same assay, conditions: Staphylococcus epidermidis, ATCC35984, 160 μM, positive = prevention, negative = enhancement of biofilm formation, quadruplicate, read-out: average percentage reduction of biofilm formed relative to DMSO controls

Structure (SMILES)	inhibition at 160 µM [%]
CCCCCCCCNC(=O)[C@@H]1CCCN1C(=O)OC(C)(C)C [Compound 11]	-60
CCCCCCCCNC(=O)[C@@H]1CCN1 [Compound 288]	101
CCCCCCCCCCCCNC(=O)[C@@H]1CCN1C(=O)OC(C)(C)C [Compound 286]	-29

same assay, conditions: Staphylococcus epidermidis, ATCC35984, 390 μM, positive = prevention, negative = enhancement of biofilm formation, quadruplicate, read-out: average percentage reduction of biofilm formed relative to DMSO controls

Structure (SMILES)	inhibition at 390 µM [%]
CCCCCCCCNC(=O)[C@@H]1CCCN1C(=O)OC(C)(C)C [Compound 11]	37
CCCCCCCCNC(=O)[C@@H]1CCN1 [Compound 288]	99
CCCCCCCCCCCCNC(=O)[C@@H]1CCN1C(=O)OC(C)(C)C [Compound 286]	12

tested on: P. fluorescens strain ATCC 13525; assay: Improved biofilm dispersion screen (already-formed biofilms, crystal violet); assay type: cell-based; details: Pseudomonas fluorescens, ATCC13525, 20 mM NaOH step, positive = dispersion, negative = enhancement of pre-existing biofilm, quadruplicate, read-out: average percentage reduction of biofilm relative to the two control values (dispersion)
Method: (§5) A modification of method disclosed in Reference Example 2, which greatly improves the sensitivity and reproducibility of the dispersion screen is hereby disclosed. […] In the modification described herein, compounds are added in the presence of the fresh liquid growth media, such that the resultant biofilms continue to grow, unless a test compound triggers their dispersion. Overnight cultures are made as above, and 100 μL of the appropriate liquid growth media are dispensed into duplicate 96 well microplates—in this fashion, two identical microplates are set up for each bacterial species to be assayed. Neither compounds nor DMSO are added prior to the inoculation of bacteria, and growth in the duplicate plates for 24 hours is allowed using the conditions specified in Reference Example 1. After growth of biofilm to be tested in the wells, cells present in biofilm attached to one of the duplicate microplates is stained with CV, quantitated as described in Reference Example 1, and the data for the entire plate averaged, resulting in a growth control value, t0. The remaining replicate of each microplate pairs is treated with compounds in DMSO, or DMSO alone for control wells, by first removing the cell suspensions from the wells, then adding fresh 100 μL volumes of the same appropriate liquid growth media, followed by direct addition and mixing of the compound DMSO solutions to give final compound concentrations of 390 μM. Incubation of the compound-containing microplates is then continued for an additional 22–26 hours using the same conditions described in Reference Example 1. Cell suspensions are then removed, 100 μL per well of a 0 mM NaOH (S. epidermidis), 20 mM NaOH (P. fluorescens), or 30 mM NaOH (P. aeruginosa) solution in PBS is added, and incubation at room temperature is allowed for 30 minutes. No addition of NaOH is made to the S. epidermidis suspension since a test assay indicated no amplification by base with S. epidermidis. The microplates are subsequently rinsed three times with 150 μL per well of PBS, followed by final liquid removal, staining with CV and quantitation as described in Reference Example 1. Data for each well that contained compound result in a compound value, R, and data for control wells that contained DMSO only are averaged to generate a second control value, t24. The effect of each compound tested on dispersion of the biofilm compared to the two control values is calculated thus: [formula] […] Data are expressed in terms of the average percentage reduction of biofilm formed in the presence of each compound, relative to the two control values, for quadruplicate samples. Assays are run as described above, using compound concentrations of 390 μM. Positive numbers indicate dispersion (reduction) of pre-existing biofilms by a compound, and negative numbers indicate enhancement (stimulation of growth) of pre-existing biofilms by a compound (percentage coefficients of variation are ≦15%).

Structure (SMILES)	inhibition at 390 µM [%]
CCCCCCCCNC(=O)[C@@H]1CCCN1C(=O)OC(C)(C)C [Compound 11]	-23
CCCCCCCCNC(=O)[C@@H]1CCN1 [Compound 288]	-2

tested on: P. aeruginosa strain PAO1; assay: as above; assay type: cell-based; details: Pseudomonas aeruginosa, 30 mM NaOH step, positive = dispersion, negative = enhancement of pre-existing biofilm, quadruplicate, read-out: average percentage reduction of biofilm relative to the two control values (dispersion)
Method: as §5

Structure (SMILES)	inhibition at 390 µM [%]
CCCCCCCCNC(=O)[C@@H]1CCCN1C(=O)OC(C)(C)C [Compound 11]	-56
CCCCCCCCNC(=O)[C@@H]1CCN1 [Compound 288]	-32
CCCCCCCCCCCCNC(=O)[C@@H]1CCN1C(=O)OC(C)(C)C [Compound 286]	-83

tested on: S. epidermidis strain ATCC 35984; assay: as above; assay type: cell-based; details: Staphylococcus epidermidis, ATCC35984, no NaOH, positive = dispersion, negative = enhancement of pre-existing biofilm, quadruplicate, read-out: average percentage reduction of biofilm relative to the two control values (dispersion)
Method: as §5

Structure (SMILES)	inhibition at 390 µM [%]
CCCCCCCCNC(=O)[C@@H]1CCCN1C(=O)OC(C)(C)C [Compound 11]	0
CCCCCCCCNC(=O)[C@@H]1CCN1 [Compound 288]	72
CCCCCCCCCCCCNC(=O)[C@@H]1CCN1C(=O)OC(C)(C)C [Compound 286]	0
